One assay has as its system DBP. Briefly: Gene expression in rat brain after stimulant treatment (Affymetrix U34A GeneChip), prefrontal cortex. The conditions noted are these: 24 h, read-out: Fold Induction of DBP. How it is done:
(§1) In experiments conducted during the development of the present invention, the rat animal model was used. This model is commonly accepted by those in the art for experiments involving psychiatric disorders. In some experiments, rats were treated with a single dose of methamphetamine (4 mg/kg) and sacrificed 24 hours later. This timepoint was chosen as that most likely to detect changes of relevance to mania and psychosis. It was hypothesized that at 24 hours, most short term gene induction relevant to acute intoxication and behavioral activation would have subsided. […] As mania and psychosis are typically chronic processes in man, more persistent gene changes are more likely to be central to pathophysiological mechanisms. Gene expression was examined in the prefrontal cortex and amygdala, using the Afymetrix U34A GeneChip, which interrogates approximately 7,000 known genes and 1,000 ESTs (expressed sequence tags) using an oligonucleotide nicroarray (See, Lipshutz et al., Nat. Genet. 21:20 [1999]). These brain regions were chosen based on the extensive literature that highlights their central role in cognition and emotion (See e.g., Heimer and Alheid, Adv. Exp. Med. Biol. 1:295 [1991]).
(§2) A two-fold increase or decrease in expression was chosen as a conventional empirical cut-off. Thus, at least a two-fold change in each of two independent animal experiments was used to select those genes with the most robust and reproducible change in expression. In each experiment, pooled tissues from three methamphetamine-treated and three control rats were used. In these analyses, standard default settings of the Affymetrix GeneChip Expression Algorithm were used. A gene had to be called “Present” and “Changed,” in at least one out of two experiments and had to have an Average Difference Change greater than 50, as well as a fold change greater than 2 in two out of two experiments. […] The genes that were induced more than two-fold in both experiments were also identified by their GenBank accession numbers, as indicated in Tables 1 and 2.
(§3) After 24 hours, the rats were humanely sacrificed and the brains were harvested.
(§4) Tissues from each brain region from the three animals in each experimental group were pooled (i.e., test and control animals). Total RNA was isolated from the tissue using standard protocols known in the art. Briefly, STAT-60 extraction buffer, and phenol/chloroform extraction was used. cDNA was synthesized and used as templates to produce biotin-labelled antisense cRNAs using an in vitro transcription reaction. After fragmentation, the CRNA hybridization cocktail was prepared, cleaned, and applied to the Affymetrix GeneChip oligonucleotide array.
(§5) A two-fold increase or decrease in expression was chosen as a conventional empirical cut-off. […]

Another assay concerns FDFT1. The description is as above. The conditions noted are these: 24 h, read-out: Fold Induction of FDFT1. How it is done:
as §1, §2, §3, §4, §5

The test system of a further assay is GRK3. The description is as above. The following applies: 24 h, read-out: Fold Induction of GRK3. How it is done:
as §1, §2, §3, §4, §5

Another assay has as its system MALS-1. The assay is described as above. The conditions noted are these: 24 h, read-out: Fold Induction of MALS-1. How it is done: as §1, §2, §3, §4, §5
In a further assay the test system is ADORA3. Briefly: Gene expression in rat brain after stimulant treatment (Affymetrix U34A GeneChip), amygdala. The following applies: 24 h, read-out: Fold Induction of ADORA3. How it is done: as §1, §2, §3, §4
(§6) A two-fold increase or decrease in expression was chosen as a conventional empirical cut-off. Thus, at least a two-fold change in each of two independent animal experiments was used to select those genes with the most robust and reproducible change in expression. In these analyses, standard default settings of the Affymetrix GeneChip Expression Algorithm were used.

In another assay the test system is FCGRT. Described as above. The following applies: 24 h, read-out: Fold Induction of FCGRT. How it is done: as §1, §2, §3, §4, §6
The subject of the next assay is FEZ2. The description is as above. The following applies: 24 h, read-out: Fold Induction of FEZ2. How it is done: as §1, §2, §3, §4, §6
The next assay relates to HSPB1. The assay is described as above. The conditions noted are these: 24 h, read-out: Fold Induction of HSPB1. How it is done: as §1, §2, §3, §4, §6
For a further assay, the system named is IGF1. Described as above. The following applies: 24 h, read-out: Fold Induction of IGF1. How it is done:
as §1, §2, §3, §4, §6

The next assay deals with NDUFS8. Described as above. The conditions noted are these: 24 h, read-out: Fold Induction of NDUFS8. How it is done: as §1, §2, §3, §4, §6
A further assay deals with NTRK3. The description is as above. The following applies: 24 h, read-out: Fold Induction of NTRK3. How it is done: as §1, §2, §3, §4, §6
The subject of the next assay is POLR2F. The assay is described as above. The conditions noted are these: 24 h, read-out: Fold Induction of POLR2F. How it is done:
as §1, §2, §3, §4, §6

The next assay relates to SULT1A1. Described as above. The following applies: 24 h, read-out: Fold Induction of SULT1A1. How it is done: as §1, §2, §3, §4, §6
The test system of the next assay is FGFR1. Briefly: Gene expression in rat brain after stimulant treatment (Affymetrix U34A GeneChip). It is filed as in vivo. The following applies: 24 hours after single dose 4 mg/kg. How it is done:
as §1
(§7) A two-fold increase or decrease in expression was chosen as a conventional empirical cut-off. Thus, at least a two-fold change in each of two independent animal experiments was used to select those genes with the most robust and reproducible change in expression. In each experiment, pooled tissues from three methamphetamine-treated and three control rats were used. In these analyses, standard default settings of the Affymetrix GeneChip Expression Algorithm were used. A gene had to be called “Present” and “Changed,” in at least one out of two experiments and had to have an Average Difference Change greater than 50, as well as a fold change greater than 2 in two out of two experiments. […] The genes that were induced more than two-fold in both experiments were also identified by their GenBank accession numbers, as indicated in Tables 1 and 2. […]

Another assay relates to GRK2. The assay is described as above. The following applies: 24 hours after single dose 4 mg/kg, one value per each of two experiments. It is filed as in vivo. How it is done:
as §1, §7

The structures appear in SMILES notation. “And” between values parts separate entries of the source, which are not always exact repeats. Identical values can stand only once.

Turning to `CN[C@@H](C)Cc1ccccc1` [methamphetamine], the fold induction at 4 mg/kg with DBP was 7; in the assay with FDFT1, 2.9; with GRK3 it was 14.2; in the assay with MALS-1 it was 2.9; with ADORA3 it was 2.7; with FCGRT, 3.2. Also, the fold induction at 4 mg/kg in the assay with FEZ2 was 2.3; in the assay on HSPB1, 2.8; in the assay on IGF1, 3; in the assay with NDUFS8, 20.8; with NTRK3, 2.7; in the assay on POLR2F, 3.9. Besides, in the assay on SULT1A1, the fold induction at 4 mg/kg was 4.3. For the same molecule, the “average fold change of FGFR1 expression” value with FGFR1 (average of two experiments) amounted to 4.1 fold. Also, the “fold increase of FGFR1 expression in one of the two experiments” value with FGFR1 (one of the two experiments) stood at 1.8 fold. Moreover, the “fold changes in GRK2 expression” value with GRK2 was 1.1 fold and 1.0 fold.
